Reference: patent publication US20210355166A1, “[…] METHODS OF USE THEREOF” (priority 2018, published 2021)
Entries after “also recorded” stand apart in the source; their conditions may differ. Where two headings read alike, the source gives them in different places. Marks after values point to notes of the source that are not given here. Non-standard residues stand in square brackets, D forms with d. No end group written: not given here. *: point of attachment. β‑Lac = OC[C@H]1O[C@@H](O[C@H]2[C@H](O)[C@@H](O)[C@H](*)O[C@@H]2CO)[C@H](O)[C@@H](O)[C@H]1O; Dmt = Cc1cc(O)cc(C)c1C[C@H](N)C(=O)O

How the values were obtained:
MOPr [1] = biological target: T1, MOPr (Mus musculus, UniProt P42866); type: cell-based; set-up: expressed in transfected cells; details: for internalisation signal in GRK2 positive cells: GRK2-YFP and β-arrestin 2-HA overexpressed
Method: (§1) Endocytosis assay: Receptor internalization was quantified using a ratiometric staining of membrane and internalized receptors. […] Cells were then incubated for an additional 30 min with indicated agonist at 37° C. To unbind the M1 anti-FLAG antibody from the surface receptors, cells were quickly washed three times with ice-cold PBS lacking Mg^2+ and Ca^2+ and supplemented with 0.04% EDTA (pH 7.4).
Only YFP positive cells were analyzed for internalization.
See also FIGS. 11C and 11D.

MOPr [2] = biological target: T1, MOPr; experiment: GIRK conductance in MOPr expressing AtT20 cells without fractional inactivation of MOPr; type: cell-based; set-up: expressed in transfected cells
Method: The recording electrodes were first front filled with this internal solution and then backfilled with the same solution containing 200 μg/ml amphotericin B (in 0.8% DMSO). […] Liquid junction potential was calculated to be +16 mV and was adjusted before the start of each recording. […] Currents were sampled at 100 Hz, low pass filtered at 50 Hz and recorded on hard disk for later analyses. IGIRK was recorded using a 200 ms voltage step to −120 mV from a holding potential of −60 mV delivered every 2 s. Drugs were perfused directly onto cells using a ValveLink 8.2 pressurized pinch valve perfusion system (AutoMate Scientific, USA).

MOPr [3] = biological target: T2, MOPr (Rattus norvegicus, UniProt P33535); experiment: Patch-clamp recordings of GIRK currents in rat locus coeruleus (LC) neurons; type: cell-based
T2 construct: which natively express MOPr but not DOPr or KOPr; from tissue; host or cells: brain slices with locus coeruleus neurons, male Sprague Dawley rats
Method: Briefly, rats were anesthetized with isoflurane and decapitated. The brain was dissected and mounted in a vibratome chamber (Leica biosystem, VT100, Wetzlar, Germany) in order to prepare horizontal brain slices (280 μm). […] Slices were incubated in warm oxygenated ACSF for at least 30 min before recording. Slices were transferred to the recording chamber while warm ACSF (34° C.) was superfused at a rate of ˜2 mL/min. Whole-cell voltage-clamp recordings were acquired from LC neurons with Multiclamp 700B amplifier (Molecular Devices, CA, USA) at holding potential of −60 mV. […] Continuous current recordings were collected in chart mode at 500 Hz and filtered at 20-50 Hz using Axograph X (Axograph Scientific, Sydney, Australia). Series resistance monitored throughout the experiments and remained <15 MΩ; otherwise the data were discarded. Outward current was measured as the difference between baseline current and peak current of drug application.

C57BL/6 mice = experiment: Nociception (analgesia) testing on 54 C hotplate; type: in vivo, mouse; details: for analgesic activity after systemic administration: 54° C. hotplate
Method: Experiments were performed under the guidelines of the Australian code of practice for the care and use of animals for scientific purposes (National Health and Medical Research Council, Australia, 7th Edition). Great care was taken to minimise animal suffering during these experiments and to reduce the number of animals used. […] Food and water was available ad libitum. Mice were given at least 7 days to habituate to housing facilities prior to handling, and handled by the experimenter for 4 days prior to testing. […] The experimenter was blind to all drugs tested. Animals were tested on a 54° C. hotplate, with a maximum cut-off time of 20 seconds to prevent tissue damage. Endpoints were hindpaw lick, hindpaw flutter or jump. […] The percentage of maximal possible effects (% MPE) were calculated as follows: % MPE=(test latency−baseline latency)/(cutoff latency−baseline latency)×100%. The cut-off latency was 20 seconds. Significant differences were assessed with a two-way ANOVA and Tukey's post hoc multiple comparisons test. […] Doses were transformed to the logarithm of μmol/kg. A two-way ANOVA was used to compare data at equimolar doses.

MOPr [4] = biological target: T1, MOPr; experiment: Ser375 phosphorylation assay in AtT20 cells expressing MOPr; type: cell-based; set-up: expressed in transfected cells; details: met-enkephalin defined as 100%
Method: Cells were serum starved for at least 30 min and then incubated in the absence or presence of the indicated ligand for 5-10 min at 37° C. Phosphorylation was terminated by fixing the cells with −30° C. methanol followed by 10 min incubation on ice. Cells were washed three times with phosphate buffered saline (PBS) and then heated in sodium citrate buffer (10 mM, 0.05% Tween 20, pH.6) for 20 min at 95° C. […] Imaging was performed as detailed below.
(§2) Imaging parameters including laser intensity, photomultiplier tube (PMT) voltage and offset remained constant for each experiment. Mean fluorescence intensity was measured using ImageJ software to calculate mean gray value of an area defined […] a single cell. Each experiment was normalized to the mean of untreated cells as 0% and the mean of cells treated with saturating concentrations of Met-enk (30 μM) as 100%.

MOPr [5] = biological target: T1, MOPr; experiment: MOPr internalisation (endocytosis assay) in AtT20 cells; type: cell-based; set-up: expressed in transfected cells
Method: as §2
as §1, with “MOPr internalisation was assessed immunocytochemically after 30 minutes of agonist treatment (FIGS. 8, 9). […] Endocytosis” for “Endocytosis”

mouse MOPr (mMOPr) = biological target: T3, mouse MOPr (mMOPr) (Mus musculus, UniProt P42866); type: cell-based; details: for GIRK (80% knockdown) log(tau/KA): operational model fit
T3 construct: expressed in transfected cells

[6] = biological target: human µ-opioid receptor (hMOPr), human recombinant MOPr expressed in HEK-293 cells (human) (UniProt P35372); experiment: cell-based or functional assay
MOPr [7] = biological target: T1, MOPr; type: cell-based; set-up: expressed in transfected cells; host or cells: AtT20 cells, transient co-transfection
Method: Arrestin recruitment: Agonist-induced recruitment of β-arrestin2 to MOPr was examined using a BRET-based approach. AtT20 cells were plated in 10-cm dishes and co-transfected with MOPr C-terminally tagged with Rluc8 (MOPr-RLuc8), β-arrestin2-YFP and GRK2 (1 μg, 4 μg and 2 μg, respectively). 24 h after transfection wells were replated into white opaque 96-well plates (CulturPlate, PerkinElmer) and allowed to adhere overnight. Cells were washed with Hank's Balanced Salt Solution (HBSS) and equilibrated in HBSS for 30 min at 37° C. prior to the experiment. Coelenterazine h was added to a final concentration of 5 μM 10 min before dual fluorescence/luminescence measurement in a LUMIstar Omega plate reader (BMG LabTech). Baseline BRET was measured for 30 sec prior to addition of the indicated ligand. The BRET signal was calculated as the ratio of light emitted at 530 nm by YFP over the light emitted at 430 nm by Renilla luciferase 8 (RLuc8).

[8] = biological target: MOPr C-terminally tagged with Rluc8 (MOPr-RLuc8), transfected in AtT20 cells; experiment: cell-based or functional assay
[9] = biological target: FLAG tagged mouse MOPr (mMOPr) stably expressed in AtT20 cells (mouse) (UniProt P42866); experiment: cell-based or functional assay
[10] = biological target: T4, human µ-opioid receptor (hMOPr), human recombinant MOPr expressed in HEK-293 cells (human, UniProt P35372 1-400); experiment: competition with [3H]DAMGO at hMOPr
T4 construct: whole, on cells; the cAMP assay used whole HEK cells expressing hMOPr
Method: (§3) The specific ligand binding to the receptors is defined as the difference between the total binding and the nonspecific binding determined in the presence of an excess of an unlabelled opioid ligand (naloxone, 10 μM). The results are expressed as a percent of control specific binding ((measured specific binding/control specific binding)×100) obtained in the presence of unlabelled peptides of interest. The IC₅₀ values (concentration causing a half-maximal inhibition of control specific binding) and Hill coefficients (nH) were determined by non-linear regression analysis of the competition curves generated with mean replicate values using Hill equation curve fitting (Y=D+[(A−D)/(1+(C/C₅₀nH)], where Y=specific binding, D=minimum specific binding, A=maximum specific binding, C=compound concentration, C₅₀=IC₅₀, and nH=slope factor).

[11] = biological target: T4, human µ-opioid receptor (hMOPr), human …; experiment: competition with [3H]DAMGO (0.5 nM), membranes with human recombinant MOPr (HEK-293), filtration and scintillation counting
Method: as §3

[12] = biological target: MOPr natively expressed by rat locus coeruleus (LC) neurons (rat, UniProt P33535 1-398); experiment: cell-based or functional assay
[13] = biological target: T4, human µ-opioid receptor (hMOPr), human …; experiment: cell-based or functional assay

T4 sequence (P35372 whole entry): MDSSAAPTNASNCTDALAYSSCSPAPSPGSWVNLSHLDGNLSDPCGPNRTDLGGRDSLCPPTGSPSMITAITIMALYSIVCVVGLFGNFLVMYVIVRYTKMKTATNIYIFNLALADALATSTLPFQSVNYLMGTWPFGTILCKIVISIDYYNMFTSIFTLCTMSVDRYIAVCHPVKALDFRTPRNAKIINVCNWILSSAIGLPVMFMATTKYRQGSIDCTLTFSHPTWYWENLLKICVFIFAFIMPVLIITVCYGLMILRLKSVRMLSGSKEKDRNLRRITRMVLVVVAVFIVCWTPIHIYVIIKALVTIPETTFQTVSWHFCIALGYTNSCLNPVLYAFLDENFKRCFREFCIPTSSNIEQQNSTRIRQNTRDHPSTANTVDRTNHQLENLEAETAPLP
Chain of MOPr natively expressed by rat locus coeruleus (LC) neurons (P33535 whole entry): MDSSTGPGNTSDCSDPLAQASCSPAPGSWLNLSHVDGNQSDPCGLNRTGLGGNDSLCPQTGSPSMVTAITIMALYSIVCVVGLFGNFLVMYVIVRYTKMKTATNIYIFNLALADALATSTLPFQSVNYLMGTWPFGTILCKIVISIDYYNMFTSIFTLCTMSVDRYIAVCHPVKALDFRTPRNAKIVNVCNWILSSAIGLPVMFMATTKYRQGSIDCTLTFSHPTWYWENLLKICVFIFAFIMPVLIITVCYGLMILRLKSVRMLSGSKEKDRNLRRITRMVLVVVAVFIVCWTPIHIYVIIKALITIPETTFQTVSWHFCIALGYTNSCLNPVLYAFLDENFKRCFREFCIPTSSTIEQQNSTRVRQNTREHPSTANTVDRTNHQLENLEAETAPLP
T1 sequence (P42866 whole entry): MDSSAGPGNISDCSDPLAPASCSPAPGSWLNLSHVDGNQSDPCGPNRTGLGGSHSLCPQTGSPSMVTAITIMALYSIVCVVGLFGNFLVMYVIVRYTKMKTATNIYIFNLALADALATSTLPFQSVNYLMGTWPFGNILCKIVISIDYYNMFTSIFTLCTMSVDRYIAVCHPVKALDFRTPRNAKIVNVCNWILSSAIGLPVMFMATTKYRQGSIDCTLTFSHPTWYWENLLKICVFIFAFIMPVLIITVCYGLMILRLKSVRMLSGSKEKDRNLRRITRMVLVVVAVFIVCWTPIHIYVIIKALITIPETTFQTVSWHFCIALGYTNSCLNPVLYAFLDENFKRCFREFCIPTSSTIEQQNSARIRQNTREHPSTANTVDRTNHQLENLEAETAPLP
Chain of FLAG tagged mouse MOPr (mMOPr) stably expressed in AtT20 cells (mouse) (P42866 whole entry): as above
T3 sequence (P42866 whole entry): as above
Chain of human µ-opioid receptor (hMOPr), human recombinant MOPr expressed in HEK-293 cells (human) (P35372 whole entry): as the sequence (P35372 whole entry) above
T2 sequence (P33535 whole entry): as the sequence (P33535 whole entry) above

## Cc1cc(O)cc(C)c1C[C@H](N)C(=O)N[C@@H](C(=O)N[C@H](C(=O)N[C@H](Cc1ccccc1)C(N)=O)C(C)C)C(C)C [peptide 3c, 2,6-dimethyl-L-tyrosine-D-Val-L-Val-D-Phe-NH2]
MOPr [1]
  internalisation signal in GRK2 positive cells: clear internalisation signals
MOPr [2]
  agonist action in AtT20 cells: potent partial opioid agonist
MOPr [3]; compared with morphine
  agonist action on GIRK current in LC neurons: agonist with potency greater than morphine
C57BL/6 mice; hotplate, 5 nmol/mouse intrathecal
  peak effect after intrathecal injection: 41±9 % MPE
C57BL/6 mice; i.v. 50 mg/kg, versus vehicle
  nociception in the hotplate test, intravenous: failed to inhibit nociception
C57BL/6 mice; s.c. 100 mg/kg, versus vehicle
  nociception in the hotplate test, subcutaneous: failed to inhibit nociception

## met-enkephalin
MOPr [4]
  Phosphorylation Emax: 100* %
MOPr [5]
  Internalisation Emax: 100* %
  MOPr internalisation: robust internalisation

## COc1ccsc1CNCC[C@@]1(c2ccccn2)CCOC2(CCCC2)C1 [oliceridine]
MOPr [1]
  internalisation signal in GRK2 positive cells: clear internalisation signals
Mouse MOPr (mMOPr)
  GGIRK maximal response / intrinsic efficacy: significantly less efficaciously than either morphine or bilorphin
  GIRK (80% knockdown) log(tau/KA): 7.2 ± 0.08
Mouse MOPr (mMOPr); AtT20 mMOPr cells after β-CNA, relative to somatostatin
  GIRK (80% knockdown) Emax: 0.33 ± 0.01
MOPr [5]; 30 min agonist, met-enkephalin defined as 100%
  Internalisation Emax: No activity

## DAMGO ([D-Ala^2, N-MePhe^4, Gly^5-ol]-enkephalin) (peptide)
[6]
  % inhibition of forskolin-stimulate cAMP formation in hMOPr HEK cells (10 um): 94%

## endomorphin-2
MOPr [4]
  Phosphorylation Emax: 98 ± 2%
MOPr [7]; BRET
  β-arrestin 2 recruitment Emax: 100 ± 3
MOPr [7]; operational model fit
  β-arrestin 2 recruitment log(tau/KA): 7.0 ± 0.06
Mouse MOPr (mMOPr)
  GIRK (80% knockdown) log(tau/KA): 7.5 ± 0.04
MOPr [5]
  Internalisation Emax: 94 ± 3%
  Internalisation log(tau/KA): 6.2 ± 0.05
  MOPr internalisation: robust internalisation

## endomorphin-2 (peptide)
[8]
  β-arrestin 2 recruitment (BRET): Emax: 100
  β-arrestin 2 recruitment (BRET): log(EC50): -7
  β-arrestin 2 recruitment (BRET): log(tau/KA): 7
[9]
  GIRK (80% knockdown): Emax: 0.64
  GIRK (80% knockdown): log(EC50): -6.9
  GIRK (80% knockdown): log(tau/KA): 7.5
  Internalisation of MOPr: Emax: 94%
  Internalisation of MOPr: log(EC50): -6.4
  Internalisation of MOPr: log(tau/KA): 6.2
  Phosphorylation (Ser375 of MOPr): Emax: 98%
  Phosphorylation (Ser375 of MOPr): log(EC50): -7.2
  Phosphorylation (Ser375 of MOPr): log(tau/KA): 7.2

## CC(=O)N[C@@H](Cc1ccc(O)cc1)C(=O)N[C@@H](C(=O)N[C@H](C(=O)N[C@H](Cc1ccccc1)C(N)=O)C(C)C)C(C)C [3d, Aε-YvVf-NH2]
MOPr [3]; 10-30 μM
  activity in LC neurons: inactive

## 2,6-dimethyl-L-tyrosine-D-Val-L-Val-D-Phe-L-Ser(β-Lac)-NH2 ([Dmt][dV]V[dF]S(β‑Lac)-NH2; N-terminus assumed; SMILES Cc1cc(O)cc(C)c1C[C@H](N)C(=O)N[C@@H](C(=O)N[C@H](C(=O)N[C@H](Cc1ccccc1)C(=O)N[C@@H](CO[C@@H]1O[C@H](CO)[C@@H](O[C@@H]2O[C@H](CO)[C@H](O)[C@H](O)[C@H]2O)[C@H](O)[C@H]1O)C(N)=O)C(C)C)C(C)C) [peptide 3g]
MOPr [1]; 30 μM, after GRK2 overexpression
  internalization compared to bilorphin: modest
MOPr [7]
  β-arrestin recruitment compared to bilorphin: modest
MOPr [2]
  agonist action in AtT20 cells: potent partial opioid agonist
  potency compared with bilorphin in AtT20 cells: small loss of potency
C57BL/6 mice; s.c., listed as Bilactorphin
  analgesic activity after systemic administration: dose-dependent analgesia; also recorded: equipotent with morphine
C57BL/6 mice; s.c., listed as bilactorphin
  analgesic activity after systemic administration: potent analgesic
C57BL/6 mice; hotplate, i.v
  peak effect after i.v: 88.9±11.8 % MPE
C57BL/6 mice; hotplate, oral gavage
  activity after oral administration: active
C57BL/6 mice; s.c.
  ED50, hotplate, systemic administration s.c.: 34 µmol/kg

## H-FVVF-NH2 (peptide)
[6]
  % inhibition of forskolin-stimulate cAMP formation in hMOPr HEK cells (10 um): 19%

B1: H-YvVf-NH2 (L-Tyr-D-Val-L-Val-D-Phe-NH2) (peptide)
peptide: YVVF
modifications: D-Val at 2; D-Phe at 4; C-terminal amide
notes: also called 3b; peptide 3b
[10]
  fold increase of affinity over Bilaid C (3a): 2 fold
[11]
  Ki: 93 nM

B2: H-YVVF-OH (peptide)
peptide: H-YVVF-OH
[12]
  Agonist potency in LC neurons EC50: > 10000 nM

B3: H-YVVF-NH2 (peptide)
peptide: H-YVVF-NH2
[12]
  Agonist potency in LC neurons EC50: > 10000 nM

B4: H-FvVf-NH2 (L-Phe-D-Val-L-Val-D-Phe-NH2) (peptide)
peptide: FVVF
modifications: D-Val at 2; D-Phe at 4; C-terminal amide
notes: also called 1e; peptide 1e
[10]
  fold improvement of affinity over Bilaid A (1a): 4 fold
[13]
  % inhibition of forskolin-stimulate cAMP formation in hMOPr HEK cells (10 um): 47%
[11]
  Ki: 750 nM

B5: Ac-YvVf-NH2 (peptide)
peptide: Ac-Y[dV]V[dF]-NH2
[12]
  Agonist potency in LC neurons EC50: > 10000 nM
